Measured values from the NIST ThermoML archive (doi:10.1016/j.jct.2006.05.008).
Where “and” joins values, the source holds several entries; their conditions need not be identical. Identical values can stand only once. Numbers after ± are expanded uncertainties.

Assay: molar heat capacity at constant pressure
Settings: 101.33 kPa

CCC[n+]1ccn(C)c1.[Br-] [1-methyl-3-propylimidazolium bromide]
Settings	molar heat capacity at constant pressure
146.32 K, Glass, Small (less than 1 g) adiabatic calorimetry	140.69 ± 0.76 J/K/mol
146.55 K, Crystal, Vacuum adiabatic calorimetry	133.11 ± 0.33 J/K/mol
146.9 K, Crystal, Vacuum adiabatic calorimetry	133.3 ± 0.33 J/K/mol
147.92 K, Crystal, Vacuum adiabatic calorimetry	133.83 ± 0.33 J/K/mol
148.32 K, Metastable crystal, Small (less than 1 g) adiabatic calorimetry	137.4 ± 0.75 J/K/mol
148.96 K, Crystal, Vacuum adiabatic calorimetry	134.32 ± 0.33 J/K/mol
149.12 K, Glass, Small (less than 1 g) adiabatic calorimetry	142.33 ± 0.77 J/K/mol
149.3 K, Crystal, Vacuum adiabatic calorimetry	134.52 ± 0.33 J/K/mol
150.68 K, Crystal, Vacuum adiabatic calorimetry	135.21 ± 0.34 J/K/mol
150.83 K, Metastable crystal, Small (less than 1 g) adiabatic calorimetry	138.65 ± 0.75 J/K/mol
151.02 K, Crystal, Vacuum adiabatic calorimetry	135.37 ± 0.34 J/K/mol
151.92 K, Glass, Small (less than 1 g) adiabatic calorimetry	143.94 ± 0.78 J/K/mol
152.06 K, Crystal, Vacuum adiabatic calorimetry	135.89 ± 0.34 J/K/mol
153.09 K, Crystal, Vacuum adiabatic calorimetry	136.42 ± 0.34 J/K/mol
153.33 K, Metastable crystal, Small (less than 1 g) adiabatic calorimetry	139.92 ± 0.76 J/K/mol
153.43 K, Crystal, Vacuum adiabatic calorimetry	136.63 ± 0.34 J/K/mol
153.5 K, Glass, Small (less than 1 g) adiabatic calorimetry	144.83 ± 0.78 J/K/mol
154.73 K, Glass, Small (less than 1 g) adiabatic calorimetry	145.57 ± 0.78 J/K/mol
154.81 K, Crystal, Vacuum adiabatic calorimetry	137.37 ± 0.34 J/K/mol
155.15 K, Crystal, Vacuum adiabatic calorimetry	137.48 ± 0.34 J/K/mol
155.84 K, Metastable crystal, Small (less than 1 g) adiabatic calorimetry	141.25 ± 0.77 J/K/mol
155.92 K, Glass, Small (less than 1 g) adiabatic calorimetry	146.2 ± 0.79 J/K/mol
156.19 K, Crystal, Vacuum adiabatic calorimetry	138.07 ± 0.34 J/K/mol
157.22 K, Crystal, Vacuum adiabatic calorimetry	138.55 ± 0.34 J/K/mol
157.53 K, Glass, Small (less than 1 g) adiabatic calorimetry	147.21 ± 0.79 J/K/mol
157.57 K, Crystal, Vacuum adiabatic calorimetry	138.81 ± 0.34 J/K/mol
158.35 K, Metastable crystal, Small (less than 1 g) adiabatic calorimetry	142.5 ± 0.77 J/K/mol
158.39 K, Glass, Small (less than 1 g) adiabatic calorimetry	147.68 ± 0.79 J/K/mol
158.74 K, Metastable crystal, Small (less than 1 g) adiabatic calorimetry	142.49 ± 0.77 J/K/mol
158.95 K, Crystal, Vacuum adiabatic calorimetry	139.5 ± 0.34 J/K/mol
159.29 K, Crystal, Vacuum adiabatic calorimetry	139.64 ± 0.34 J/K/mol
160.32 K, Crystal, Vacuum adiabatic calorimetry	140.24 ± 0.34 J/K/mol
160.34 K, Glass, Small (less than 1 g) adiabatic calorimetry	148.83 ± 0.8 J/K/mol
160.85 K, Glass, Small (less than 1 g) adiabatic calorimetry	149.02 ± 0.8 J/K/mol
160.86 K, Metastable crystal, Small (less than 1 g) adiabatic calorimetry	143.76 ± 0.78 J/K/mol
161.31 K, Metastable crystal, Small (less than 1 g) adiabatic calorimetry	143.83 ± 0.78 J/K/mol
161.35 K, Crystal, Vacuum adiabatic calorimetry	140.75 ± 0.34 J/K/mol
161.7 K, Crystal, Vacuum adiabatic calorimetry	141.04 ± 0.34 J/K/mol
163.07 K, Crystal, Vacuum adiabatic calorimetry	141.95 ± 0.34 J/K/mol
163.14 K, Glass, Small (less than 1 g) adiabatic calorimetry	150.42 ± 0.8 J/K/mol
163.31 K, Glass, Small (less than 1 g) adiabatic calorimetry	150.41 ± 0.8 J/K/mol
163.36 K, Metastable crystal, Small (less than 1 g) adiabatic calorimetry	145.06 ± 0.78 J/K/mol
163.42 K, Crystal, Vacuum adiabatic calorimetry	142.16 ± 0.34 J/K/mol
163.82 K, Metastable crystal, Small (less than 1 g) adiabatic calorimetry	145.08 ± 0.78 J/K/mol
164.45 K, Crystal, Vacuum adiabatic calorimetry	143.11 ± 0.34 J/K/mol
165.48 K, Crystal, Vacuum adiabatic calorimetry	144.27 ± 0.34 J/K/mol
165.77 K, Glass, Small (less than 1 g) adiabatic calorimetry	151.85 ± 0.81 J/K/mol
165.82 K, Crystal, Vacuum adiabatic calorimetry	145.11 ± 0.35 J/K/mol
165.87 K, Metastable crystal, Small (less than 1 g) adiabatic calorimetry	146.32 ± 0.79 J/K/mol
165.96 K, Glass, Small (less than 1 g) adiabatic calorimetry	152.04 ± 0.81 J/K/mol
166.33 K, Metastable crystal, Small (less than 1 g) adiabatic calorimetry	146.42 ± 0.79 J/K/mol
167.19 K, Crystal, Vacuum adiabatic calorimetry	146.62 ± 0.35 J/K/mol
167.53 K, Crystal, Vacuum adiabatic calorimetry	147.09 ± 0.35 J/K/mol
168.23 K, Glass, Small (less than 1 g) adiabatic calorimetry	153.27 ± 0.81 J/K/mol
168.38 K, Metastable crystal, Small (less than 1 g) adiabatic calorimetry	147.66 ± 0.79 J/K/mol
168.56 K, Crystal, Vacuum adiabatic calorimetry	147.58 ± 0.35 J/K/mol
168.77 K, Glass, Small (less than 1 g) adiabatic calorimetry	153.64 ± 0.81 J/K/mol
168.85 K, Metastable crystal, Small (less than 1 g) adiabatic calorimetry	147.67 ± 0.79 J/K/mol
169.59 K, Crystal, Vacuum adiabatic calorimetry	148.31 ± 0.35 J/K/mol
169.93 K, Crystal, Vacuum adiabatic calorimetry	148.36 ± 0.35 J/K/mol
170.69 K, Glass, Small (less than 1 g) adiabatic calorimetry	154.76 ± 0.82 J/K/mol
170.88 K, Metastable crystal, Small (less than 1 g) adiabatic calorimetry	149.09 ± 0.8 J/K/mol
171.3 K, Crystal, Vacuum adiabatic calorimetry	149.09 ± 0.35 J/K/mol
171.36 K, Metastable crystal, Small (less than 1 g) adiabatic calorimetry	149.04 ± 0.8 J/K/mol
171.57 K, Glass, Small (less than 1 g) adiabatic calorimetry	155.3 ± 0.82 J/K/mol
171.66 K, Crystal, Vacuum adiabatic calorimetry	149.38 ± 0.35 J/K/mol
172.67 K, Crystal, Vacuum adiabatic calorimetry	149.83 ± 0.35 J/K/mol
173.15 K, Glass, Small (less than 1 g) adiabatic calorimetry	156.22 ± 0.82 J/K/mol
173.73 K, Crystal, Vacuum adiabatic calorimetry	150.42 ± 0.35 J/K/mol
173.86 K, Metastable crystal, Small (less than 1 g) adiabatic calorimetry	151.16 ± 0.81 J/K/mol
174.05 K, Crystal, Vacuum adiabatic calorimetry	150.49 ± 0.35 J/K/mol
174.37 K, Glass, Small (less than 1 g) adiabatic calorimetry	156.97 ± 0.83 J/K/mol
175.42 K, Crystal, Vacuum adiabatic calorimetry	151.1 ± 0.35 J/K/mol
175.61 K, Glass, Small (less than 1 g) adiabatic calorimetry	157.68 ± 0.83 J/K/mol
175.8 K, Crystal, Vacuum adiabatic calorimetry	151.34 ± 0.35 J/K/mol
176.31 K, Metastable crystal, Small (less than 1 g) adiabatic calorimetry	156.29 ± 0.83 J/K/mol
176.79 K, Crystal, Vacuum adiabatic calorimetry	151.84 ± 0.35 J/K/mol
177.16 K, Glass, Small (less than 1 g) adiabatic calorimetry	158.66 ± 0.83 J/K/mol
177.87 K, Crystal, Vacuum adiabatic calorimetry	152.35 ± 0.35 J/K/mol
178.06 K, Glass, Small (less than 1 g) adiabatic calorimetry	159.2 ± 0.84 J/K/mol
178.16 K, Crystal, Vacuum adiabatic calorimetry	152.6 ± 0.35 J/K/mol
178.77 K, Metastable crystal, Small (less than 1 g) adiabatic calorimetry	157.34 ± 0.83 J/K/mol
179.54 K, Crystal, Vacuum adiabatic calorimetry	153.2 ± 0.35 J/K/mol
179.94 K, Crystal, Vacuum adiabatic calorimetry	153.35 ± 0.35 J/K/mol
179.96 K, Glass, Small (less than 1 g) adiabatic calorimetry	160.43 ± 0.84 J/K/mol
180.51 K, Glass, Small (less than 1 g) adiabatic calorimetry	160.72 ± 0.84 J/K/mol
180.91 K, Crystal, Vacuum adiabatic calorimetry	153.97 ± 0.35 J/K/mol
181.24 K, Metastable crystal, Small (less than 1 g) adiabatic calorimetry	158.54 ± 0.83 J/K/mol
182.01 K, Crystal, Vacuum adiabatic calorimetry	154.36 ± 0.35 J/K/mol
182.28 K, Crystal, Vacuum adiabatic calorimetry	154.57 ± 0.35 J/K/mol
182.76 K, Glass, Small (less than 1 g) adiabatic calorimetry	162.21 ± 0.85 J/K/mol
182.96 K, Glass, Small (less than 1 g) adiabatic calorimetry	162.2 ± 0.85 J/K/mol
183.71 K, Metastable crystal, Small (less than 1 g) adiabatic calorimetry	159.86 ± 0.84 J/K/mol
184.08 K, Crystal, Vacuum adiabatic calorimetry	155.44 ± 0.35 J/K/mol
184.32 K, Crystal, Vacuum adiabatic calorimetry	155.34 ± 0.35 J/K/mol
185.31 K, Crystal, Vacuum adiabatic calorimetry	156.02 ± 0.36 J/K/mol
185.4 K, Glass, Small (less than 1 g) adiabatic calorimetry	163.81 ± 0.86 J/K/mol
185.55 K, Glass, Small (less than 1 g) adiabatic calorimetry	163.97 ± 0.86 J/K/mol
186.15 K, Crystal, Vacuum adiabatic calorimetry	156.46 ± 0.36 J/K/mol
186.18 K, Metastable crystal, Small (less than 1 g) adiabatic calorimetry	161.18 ± 0.84 J/K/mol
186.86 K, Crystal, Vacuum adiabatic calorimetry	156.54 ± 0.36 J/K/mol
187 K, Crystal, Vacuum adiabatic calorimetry	156.84 ± 0.36 J/K/mol
187.85 K, Glass, Small (less than 1 g) adiabatic calorimetry	165.5 ± 0.86 J/K/mol
188.22 K, Crystal, Vacuum adiabatic calorimetry	157.39 ± 0.36 J/K/mol
188.33 K, Glass, Small (less than 1 g) adiabatic calorimetry	165.89 ± 0.86 J/K/mol
188.37 K, Crystal, Vacuum adiabatic calorimetry	157.44 ± 0.36 J/K/mol
188.65 K, Metastable crystal, Small (less than 1 g) adiabatic calorimetry	162.48 ± 0.85 J/K/mol
189.74 K, Crystal, Vacuum adiabatic calorimetry	158.15 ± 0.36 J/K/mol and 158.27 ± 0.36 J/K/mol
190.29 K, Crystal, Vacuum adiabatic calorimetry	158.43 ± 0.36 J/K/mol
190.29 K, Glass, Small (less than 1 g) adiabatic calorimetry	167.25 ± 0.87 J/K/mol
190.58 K, Crystal, Vacuum adiabatic calorimetry	158.53 ± 0.36 J/K/mol
191.11 K, Crystal, Vacuum adiabatic calorimetry	158.93 ± 0.36 J/K/mol
191.12 K, Glass, Small (less than 1 g) adiabatic calorimetry	167.98 ± 0.87 J/K/mol
191.12 K, Metastable crystal, Small (less than 1 g) adiabatic calorimetry	163.72 ± 0.86 J/K/mol
192.28 K, Crystal, Vacuum adiabatic calorimetry	159.62 ± 0.36 J/K/mol
192.36 K, Crystal, Vacuum adiabatic calorimetry	159.59 ± 0.36 J/K/mol
192.48 K, Crystal, Vacuum adiabatic calorimetry	159.63 ± 0.36 J/K/mol
192.74 K, Glass, Small (less than 1 g) adiabatic calorimetry	168.95 ± 0.88 J/K/mol
193.11 K, Crystal, Vacuum adiabatic calorimetry	160.08 ± 0.36 J/K/mol
193.58 K, Metastable crystal, Small (less than 1 g) adiabatic calorimetry	165.05 ± 0.86 J/K/mol
193.85 K, Crystal, Vacuum adiabatic calorimetry	160.55 ± 0.36 J/K/mol
193.9 K, Glass, Small (less than 1 g) adiabatic calorimetry	169.91 ± 0.88 J/K/mol
194.35 K, Crystal, Vacuum adiabatic calorimetry	160.92 ± 0.36 J/K/mol
195.18 K, Crystal, Vacuum adiabatic calorimetry	161.48 ± 0.36 J/K/mol
195.19 K, Glass, Small (less than 1 g) adiabatic calorimetry	171.15 ± 0.88 J/K/mol
195.22 K, Crystal, Vacuum adiabatic calorimetry	161.53 ± 0.36 J/K/mol
196.05 K, Metastable crystal, Small (less than 1 g) adiabatic calorimetry	166.26 ± 0.87 J/K/mol
196.59 K, Crystal, Vacuum adiabatic calorimetry	162.52 ± 0.36 J/K/mol
196.68 K, Glass, Small (less than 1 g) adiabatic calorimetry	172.49 ± 0.89 J/K/mol
197.24 K, Crystal, Vacuum adiabatic calorimetry	163.14 ± 0.36 J/K/mol
197.62 K, Glass, Small (less than 1 g) adiabatic calorimetry	173.39 ± 0.89 J/K/mol
197.95 K, Crystal, Vacuum adiabatic calorimetry	163.6 ± 0.36 J/K/mol
198.51 K, Crystal, Vacuum adiabatic calorimetry	164.2 ± 0.37 J/K/mol
198.51 K, Metastable crystal, Small (less than 1 g) adiabatic calorimetry	167.53 ± 0.87 J/K/mol
199.3 K, Crystal, Vacuum adiabatic calorimetry	164.84 ± 0.37 J/K/mol
